Results from patent publication US20040063725A1, “Novel n(phenylsulphonyl)glycine derivatives and their therapeutic use” (priority 2001, published 2004).
Where a name gives a salt, the structure may show the parent alone.

System: formaldehyde-induced pain
Assay: formaldehyde-induced pain test in the mouse (formalin test)
Type: in vivo
Settings: formaldehyde 0.92% in paw, licking time 15 to 30 min
Experimental: The compounds of the present invention were evaluated for their analgesic property in the formaldehyde-induced pain test in the mouse (Shibata, M., Ohkubo, T., Takahashi, H. & R. Inoki. Modified formalin test: characteristic biphasic pain response. Pain, 38. 347-352). In summary, an administration of formaldehyde (0.92% in physiological serum) is made in the front paw and the licking time, which reflects the intensity of the pain, is recorded from 0 to 5 min (1st phase) and from 15 to 30 min (2nd phase) after the injection. The percentage inhibition of the second phase of licking induced by the formaldehyde is given, for some compounds according to the invention, in the following Table: […]

| Molecule | % inhibition of the 2nd licking phase (10 mg/kg s.c.) | % inhibition of the 2nd licking phase (30 mg/kg s.c.) | also measured |
| --- | --- | --- | --- |
| Cc1c(Cl)ccc(S(=O)(=O)N(CCc2ccccc2)CC(=O)NCC(=O)N(CCCN(C)C)Cc2ccc(C3=NCCN3)cc2)c1Cl [Example 35, 2-[[(2,4-dichloro-3-methylphenyl)sulphonyl](2-phenylethyl)amino]-N-[2-[[[4-(4,5-dihydro-1H-imidazol-2-yl)phenyl]methyl][3-(dimethylamino)propyl]amino]-2-oxoethyl]acetamide, Dihydrochloride] | 92% |  |  |
| N-[2-[[[4-(aminoiminomethyl)phenyl]methyl][3-(dimethylamin)propyl]amino]-2-oxoethyl]-2-[[(2,4-dichloro-3-methylphenyl)sulphonyl](2-phenylethyl)amino]acetamide, Dihydrochloride [Example 23] |  | 98% |  |
| Cc1c(Cl)ccc(S(=O)(=O)N(CCc2ccccc2)CC(=O)NCC(=O)N(CCC2CCNCC2)Cc2ccc(C(=N)N)cc2)c1Cl.O=C(O)C(F)(F)F.O=C(O)C(F)(F)F [Example 24, N-[2-[[[4-(aminoiminomethyl)phenyl]methyl](4-piperidinylethyl)amino]-2-oxoethyl]-2-[[(2,4-dichloro-3-methylphenyl)sulphonyl](2-phenylethyl)-amino]acetamide, bis Trifluoroacetate] | 76% |  |  |
| N-[2-[(4-aminobutyl)(4-piperidinylmethyl)amino]-2-oxoethyl]-2-[[(2,4-dichloro-3-methylphenyl)sulphonyl](2-phenylethyl)amino]acetamide, Bis Trifluoroacetate [Example 25] |  | 87% |  |
| Cc1c(Cl)ccc(S(=O)(=O)N(CCc2ccccc2)CC(=O)NCC(=O)N(CCCCN2CCCC2)CCCc2cnc[nH]2)c1Cl [Example 82, 2-[[(2,4-dichloro-3-methylphenyl)sulphonyl](2-phenylethyl)amino]-N-[2-[[3-(1H-imidazol-5-yl)propyl][4-(1-pyrrolidinyl)butyl]amino]-2-oxo-ethyl]acetamide, Dihydrochloride] |  |  | % inhibition of the 2nd licking phase (10 mg/kg i.p.): 63% |
